Measured values as given in ChEMBL document CHEMBL1201862, “PubChem BioAssay data set” (2004).
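48-hour exposure; five concentrations; linearly interpolated endpoints. Abbreviation: GI50, concentration required for 50% inhibition of growth.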 The source made the active and inactive calls. Cut-off read from the data, not from the text of the source: active = GI50 up to about 1.1 µM and inactive = higher.

How the values were obtained:
Assay in all cases: growth of human tumour cells (NCI), 48 h
SK-MEL-5 = tested on: SK-MEL-5
HCC 2998 = tested on: HCC 2998
NCI-H460 = tested on: NCI-H460
A549 = tested on: A549
BT-549 = tested on: BT-549
OVCAR-3 = tested on: OVCAR-3
NCI/ADR-RES = tested on: NCI/ADR-RES
RXF 393 = tested on: RXF 393
PC-3 = tested on: PC-3
SNB-75 = tested on: SNB-75
SN12C = tested on: SN12C
KM12 = tested on: KM12
SNB-19 = tested on: SNB-19
DU-145 = tested on: DU-145
M14 = tested on: M14
IGROV-1 = tested on: IGROV-1
OVCAR-8 = tested on: OVCAR-8
CCRF-CEM = tested on: CCRF-CEM
UO-31 = tested on: UO-31
Hs-578T = tested on: Hs-578T

Measured: GI50

O=C1CCCCN1C(=O)c1ccc([N+](=O)[O-])cc1
inactive: SK-MEL-5 > 100 µM | HCC 2998 > 100 µM | NCI-H460 > 100 µM | A549 > 100 µM | BT-549 > 100 µM | OVCAR-3 > 100 µM | NCI/ADR-RES > 100 µM | RXF 393 > 100 µM | PC-3 44.3 µM | SNB-75 > 100 µM | SN12C 24 µM | KM12 > 100 µM | SNB-19 > 100 µM | DU-145 > 100 µM | M14 > 100 µM | IGROV-1 > 100 µM | OVCAR-8 > 100 µM | CCRF-CEM > 100 µM | UO-31 > 100 µM | Hs-578T > 100 µM

O=C1c2ccccc2C2(c3ccc(Cl)cc3)NCc3ccccc3CN12 (stereo not given)
inactive: SK-MEL-5 16 µM | HCC 2998 20.4 µM | NCI-H460 27.9 µM | A549 18.5 µM | BT-549 43.1 µM | OVCAR-3 13.4 µM | NCI/ADR-RES 14 µM | RXF 393 16.1 µM | PC-3 16.1 µM | SNB-75 52.8 µM | SN12C 43.4 µM | KM12 21.9 µM | SNB-19 17 µM | DU-145 21.3 µM | M14 18 µM | IGROV-1 24.2 µM | OVCAR-8 23.1 µM | CCRF-CEM 25.9 µM | UO-31 22.5 µM | Hs-578T 22.5 µM

N=C(N)NCC1CCCCCCN1 (stereo not given)
inactive: SK-MEL-5 > 100 µM | HCC 2998 > 100 µM | NCI-H460 > 100 µM | A549 > 100 µM | BT-549 > 100 µM | OVCAR-3 > 100 µM | NCI/ADR-RES > 100 µM | RXF 393 > 100 µM | PC-3 > 100 µM | SNB-75 > 100 µM | SN12C > 100 µM | KM12 > 100 µM | SNB-19 > 100 µM | DU-145 > 100 µM | M14 > 100 µM | IGROV-1 > 100 µM | OVCAR-8 > 100 µM | CCRF-CEM > 100 µM | UO-31 > 100 µM | Hs-578T > 100 µM

O=S(=O)(O)c1ccc(/N=N/c2c(O)ccc3ccccc23)cc1
inactive: SK-MEL-5 > 100 µM | HCC 2998 > 100 µM | NCI-H460 > 100 µM | A549 > 100 µM | BT-549 > 100 µM | OVCAR-3 > 100 µM | NCI/ADR-RES > 100 µM | RXF 393 > 100 µM | PC-3 > 100 µM | SNB-75 > 100 µM | SN12C > 100 µM | KM12 > 100 µM | SNB-19 > 100 µM | DU-145 > 100 µM | M14 > 100 µM | IGROV-1 > 100 µM | OVCAR-8 > 100 µM | CCRF-CEM > 100 µM | UO-31 > 100 µM | Hs-578T > 100 µM

CCCC(CCC)C(=O)O [VALPROIC ACID]
inactive: SK-MEL-5 2740 µM | HCC 2998 5710 µM | NCI-H460 4310 µM | A549 9060 µM | BT-549 12200 µM | OVCAR-3 12900 µM | NCI/ADR-RES 10900 µM | RXF 393 2570 µM | PC-3 16900 µM | SNB-75 6150 µM | SN12C > 100 µM | KM12 14300 µM | SNB-19 > 100 µM | DU-145 10200 µM | M14 > 100 µM | IGROV-1 5430 µM | OVCAR-8 3920 µM | CCRF-CEM 14800 µM | UO-31 6280 µM | Hs-578T 12100 µM
